Source: patent US20230085307A1, “PYRIDAZINONE COMPOUND AND HERBICIDE” (NISSAN CHEMICAL CORPORATION, priority 2019, published 2023)

Columns and labels:
barnyard grass [1] = test: Test Example 3: herbicidal effect by foliage application, Wagner pot (Table 18, symbol H); assay type: in vivo, barnyard grass (Echinochloa crus-galli); conditions: 320 g/ha
Method in brief: (§1)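 Plants were sown in alluvial soil held under 0.1–0.5 cm standing water and grown 14 days in a greenhouse at 25–30 °C. An emulsifiable formulation, water-diluted to the set dose, was then sprayed onto the foliage, and effects were scored three weeks later using previously defined criteria.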

Chinese sprangletop = test: Test Example 3: herbicidal effect by foliage application, Wagner pot (Table 18, symbol D); assay type: in vivo, chinese sprangletop (Leptochloa chinensis); conditions: 320 g/ha
Method in brief: as §1

rice flat sedge = test: Test Example 3: herbicidal effect by foliage application, Wagner pot (Table 18, symbol E); assay type: in vivo, rice flat sedge (Cyperus iria); conditions: 320 g/ha
Method in brief: as §1

southern crabgrass [2] = test: Test Example 4: herbicidal effect by soil treatment (Table 19, symbol F); assay type: in vivo, southern crabgrass (Digitaria ciliaris); conditions: amount of applied herbicide 320 g/ha
Method in brief: (§2)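 Soil-surface application: an emulsion agent diluted with water to the predetermined dose is sprayed uniformly over seeds lying under roughly 1.5 cm of sterilized diluvial soil. Boxes stay in a greenhouse at 25° C. to 30° C. Three weeks later, each species is graded on previously defined criteria.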

green foxtail [3] = test: Test Example 4: herbicidal effect by soil treatment (Table 19, symbol G); assay type: in vivo, green foxtail (Setaria viridis); conditions: amount of applied herbicide 320 g/ha
Method in brief: as §2

barnyard grass [4] = test: Test Example 4: herbicidal effect by soil treatment (Table 19, symbol H); assay type: in vivo, barnyard grass (Echinochloa crus-galli); conditions: amount of applied herbicide 320 g/ha
Method in brief: as §2

wild oat [5] = test: Test Example 4: herbicidal effect by soil treatment (Table 19, symbol I); assay type: in vivo, wild oat (Avena fatua); conditions: amount of applied herbicide 320 g/ha
Method in brief: as §2

blackgrass [6] = test: Test Example 4: herbicidal effect by soil treatment (Table 19, symbol J); assay type: in vivo, blackgrass (Alopecurus myosuroides); conditions: amount of applied herbicide 320 g/ha
Method in brief: as §2

Italian ryegrass [7] = test: Test Example 4: herbicidal effect by soil treatment (Table 19, symbol K); assay type: in vivo, Italian ryegrass (Lolium multiflorum); conditions: amount of applied herbicide 320 g/ha
Method in brief: as §2

windgrass [8] = test: Test Example 4: herbicidal effect by soil treatment (Table 19, symbol L); assay type: in vivo, windgrass (Apera spica-venti); conditions: amount of applied herbicide 320 g/ha
Method in brief: as §2

velvetleaf [9] = test: Test Example 4: herbicidal effect by soil treatment (Table 19, symbol M); assay type: in vivo, velvetleaf (Abutilon theophrasti); conditions: amount of applied herbicide 320 g/ha
Method in brief: as §2

redroot pigweed [10] = test: Test Example 4: herbicidal effect by soil treatment (Table 19, symbol N); assay type: in vivo, redroot pigweed (Amaranthus retroflexus); conditions: amount of applied herbicide 320 g/ha
Method in brief: as §2

lambsquarters [11] = test: Test Example 4: herbicidal effect by soil treatment (Table 19, symbol O); assay type: in vivo, lambsquarters (Chenopodium album); conditions: amount of applied herbicide 320 g/ha
Method in brief: as §2

chickweed [12] = test: Test Example 4: herbicidal effect by soil treatment (Table 19, symbol P); assay type: in vivo, common chickweed (Stellaria media); conditions: amount of applied herbicide 320 g/ha
Method in brief: as §2

persian speedwell [13] = test: Test Example 4: herbicidal effect by soil treatment (Table 19, symbol R); assay type: in vivo, Persian speedwell (Veronica persica); conditions: amount of applied herbicide 320 g/ha
Method in brief: as §2

southern crabgrass [14] = test: Test Example 5: herbicidal effect by foliage application, plastic box (Table 20, symbol F); assay type: in vivo, southern crabgrass (Digitaria ciliaris); conditions: 320 g/ha, foliage application after 14-day growth, evaluated three weeks after application
Method in brief: (§3)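 Sow seeds spot-wise in sterilized diluvial soil; cover with ~1.5 cm soil. Grow 14 days in greenhouse, 25° C. to 30° C. Spray foliage with emulsion diluted to predetermined amount. Rate effect after 3 weeks.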

green foxtail [15] = test: Test Example 5: herbicidal effect by foliage application, plastic box (Table 20, symbol G); assay type: in vivo, green foxtail (Setaria viridis); conditions: 320 g/ha, foliage application after 14-day growth, evaluated three weeks after application
Method in brief: as §3

barnyard grass [16] = test: Test Example 5: herbicidal effect by foliage application, plastic box (Table 20, symbol H); assay type: in vivo, barnyard grass (Echinochloa crus-galli); conditions: 320 g/ha, foliage application after 14-day growth, evaluated three weeks after application
Method in brief: as §3

wild oat [17] = test: Test Example 5: herbicidal effect by foliage application, plastic box (Table 20, symbol I); assay type: in vivo, wild oat (Avena fatua); conditions: 320 g/ha, foliage application after 14-day growth, evaluated three weeks after application
Method in brief: as §3

blackgrass [18] = test: Test Example 5: herbicidal effect by foliage application, plastic box (Table 20, symbol J); assay type: in vivo, blackgrass (Alopecurus myosuroides); conditions: 320 g/ha, foliage application after 14-day growth, evaluated three weeks after application
Method in brief: as §3

Italian ryegrass [19] = test: Test Example 5: herbicidal effect by foliage application, plastic box (Table 20, symbol K); assay type: in vivo, Italian ryegrass (Lolium multiflorum); conditions: 320 g/ha, foliage application after 14-day growth, evaluated three weeks after application
Method in brief: as §3

windgrass [20] = test: Test Example 5: herbicidal effect by foliage application, plastic box (Table 20, symbol L); assay type: in vivo, windgrass (Apera spica-venti); conditions: 320 g/ha, foliage application after 14-day growth, evaluated three weeks after application
Method in brief: as §3

velvetleaf [21] = test: Test Example 5: herbicidal effect by foliage application, plastic box (Table 20, symbol M); assay type: in vivo, velvetleaf (Abutilon theophrasti); conditions: 320 g/ha, foliage application after 14-day growth, evaluated three weeks after application
Method in brief: as §3

redroot pigweed [22] = test: Test Example 5: herbicidal effect by foliage application, plastic box (Table 20, symbol N); assay type: in vivo, redroot pigweed (Amaranthus retroflexus); conditions: 320 g/ha, foliage application after 14-day growth, evaluated three weeks after application
Method in brief: as §3

lambsquarters [23] = test: Test Example 5: herbicidal effect by foliage application, plastic box (Table 20, symbol O); assay type: in vivo, lambsquarters (Chenopodium album); conditions: 320 g/ha, foliage application after 14-day growth, evaluated three weeks after application
Method in brief: as §3

chickweed [24] = test: Test Example 5: herbicidal effect by foliage application, plastic box (Table 20, symbol P); assay type: in vivo, common chickweed (Stellaria media); conditions: 320 g/ha, foliage application after 14-day growth, evaluated three weeks after application
Method in brief: as §3

persian speedwell [25] = test: Test Example 5: herbicidal effect by foliage application, plastic box (Table 20, symbol R); assay type: in vivo, Persian speedwell (Veronica persica); conditions: 320 g/ha, foliage application after 14-day growth, evaluated three weeks after application
Method in brief: as §3

Q: Which “herbicidal effect on barnyard grass (H)” value (barnyard grass [1]) does the source give for `CCCC(=O)Oc1c(C)nn(C)c(=O)c1-c1c(-c2ccc(F)cc2OC)sc2c(Cl)cccc12` [4-034] here?
A: 4 (Herbicidal rate of 70% or more and less than 90%)

Q: And the “herbicidal effect on Chinese sprangletop (D)” value (Chinese sprangletop)?
A: 5 (Herbicidal rate of 90% or more (almost completely withered))

Q: What about the “herbicidal effect on rice flat sedge (E)” value (rice flat sedge) of the same compound?
A: 4 (Herbicidal rate of 70% or more and less than 90%)

Q: What about the “Herbicidal effect by soil treatment, F: southern crabgrass” value (southern crabgrass [2]) of the same compound?
A: 3 (Herbicidal rate of 40% or more and less than 70%)

Q: And the “Herbicidal effect by soil treatment, G: green foxtail” value (green foxtail [3])?
A: 4 (Herbicidal rate of 70% or more and less than 90%)

Q: What about the “Herbicidal effect by soil treatment, H: barnyard grass” value (barnyard grass [4]) of the same compound?
A: 3 (Herbicidal rate of 40% or more and less than 70%)

Q: What about the “Herbicidal effect by soil treatment, I: wild oat” value (wild oat [5]) of the same compound?
A: 0 (Herbicidal rate of 5% or less (almost no effect))

Q: And the “Herbicidal effect by soil treatment, J: blackgrass” value (blackgrass [6])?
A: 0 (Herbicidal rate of 5% or less (almost no effect))

Q: What about the “Herbicidal effect by soil treatment, K: Italian ryegrass” value (Italian ryegrass [7]) of the same compound?
A: 0 (Herbicidal rate of 5% or less (almost no effect))

Q: What about the “Herbicidal effect by soil treatment, L: windgrass” value (windgrass [8]) of the same compound?
A: 0 (Herbicidal rate of 5% or less (almost no effect))

Q: What about the “Herbicidal effect by soil treatment, M: velvetleaf” value (velvetleaf [9]) of the same compound?
A: 2 (Herbicidal rate of 20% or more and less than 40%)

Q: What about the “Herbicidal effect by soil treatment, N: redroot pigweed” value (redroot pigweed [10]) of the same compound?
A: 4 (Herbicidal rate of 70% or more and less than 90%)

Q: What about the “Herbicidal effect by soil treatment, O: lambsquarters” value (lambsquarters [11]) of the same compound?
A: 3 (Herbicidal rate of 40% or more and less than 70%)

Q: What about the “Herbicidal effect by soil treatment, P: chickweed” value (chickweed [12]) of the same compound?
A: 0 (Herbicidal rate of 5% or less (almost no effect))

Q: What about the “Herbicidal effect by soil treatment, R: persian speedwell” value (persian speedwell [13]) of the same compound?
A: 0 (Herbicidal rate of 5% or less (almost no effect))

Q: And the “herbicidal effect on F: southern crabgrass (evaluation grade 0-5)” value (southern crabgrass [14])?
A: 0 (Herbicidal rate of 5% or less (almost no effect))

Q: What about the “herbicidal effect on G: green foxtail (evaluation grade 0-5)” value (green foxtail [15]) of the same compound?
A: 3 (Herbicidal rate of 40% or more and less than 70%)

Q: And the “herbicidal effect on H: barnyard grass (evaluation grade 0-5)” value (barnyard grass [16])?
A: 3 (Herbicidal rate of 40% or more and less than 70%)

Q: And the “herbicidal effect on I: wild oat (evaluation grade 0-5)” value (wild oat [17])?
A: 0 (Herbicidal rate of 5% or less (almost no effect))

Q: What about the “herbicidal effect on J: blackgrass (evaluation grade 0-5)” value (blackgrass [18]) of the same compound?
A: 0 (Herbicidal rate of 5% or less (almost no effect))

Q: And the “herbicidal effect on K: Italian ryegrass (evaluation grade 0-5)” value (Italian ryegrass [19])?
A: 0 (Herbicidal rate of 5% or less (almost no effect))

Q: What about the “herbicidal effect on L: windgrass (evaluation grade 0-5)” value (windgrass [20]) of the same compound?
A: 5 (Herbicidal rate of 90% or more (almost completely withered))

Q: And the “herbicidal effect on M: velvetleaf (evaluation grade 0-5)” value (velvetleaf [21])?
A: 3 (Herbicidal rate of 40% or more and less than 70%)

Q: And the “herbicidal effect on N: redroot pigweed (evaluation grade 0-5)” value (redroot pigweed [22])?
A: 1 (Herbicidal rate of 5% or more and less than 20%)

Q: What about the “herbicidal effect on O: lambsquarters (evaluation grade 0-5)” value (lambsquarters [23]) of the same compound?
A: 0 (Herbicidal rate of 5% or less (almost no effect))

Q: What about the “herbicidal effect on P: chickweed (evaluation grade 0-5)” value (chickweed [24]) of the same compound?
A: 5 (Herbicidal rate of 90% or more (almost completely withered))

Q: And the “herbicidal effect on R: persian speedwell (evaluation grade 0-5)” value (persian speedwell [25])?
A: 4 (Herbicidal rate of 70% or more and less than 90%)
